Results: patent US6657105B2 (Riken, priority 2000, dated 2003)

Tested on: Or-Prnp transgenic mice
Conditions: mouse, in vivo, 4 mg/kg

Q: How did the “abnormal waves in electrocardiogram after administration of heart stimulant” value turn out when `CN1[C@@H]2CC[C@H]1C[C@@H](OC(=O)C(CO)c1ccccc1)C2` (stereo partly shown) [atropine] was run?
A: Its value is “only Or-Prnp transgenic mice showed the abnormal waves in electrocardiogram”.
